Measured values reported in paper PMC4264453 (British Journal of Cancer, 2014).
Where a name gives a salt, the structure may show the parent alone.

Key:
[1] = system: patients with advanced solid tumours; assay type: in vivo, human; settings: days 1, 8 with cisplatin 75 mg m^−2 day 1, 21-day cycle
[2] = Eribulin plasma pharmacokinetics; assay type: in vivo, human; settings: for AUC(0-inf) / clearance / Cmax / half-life / Vd: human, plasma, intravenous; for AUC(0-inf): AUC0-inf; for clearance: CL; for Vd: Vss
[3] = system: patients; settings: ref Synold et al, 2005, cited from earlier work
[4] = system: patients with advanced solid malignancies; settings: ref Goel et al, 2009; cited from earlier work
[5] = system: patients with advanced solid tumours; settings: 4 mg m^−2 cohort; ref Tan et al, 2009; cited from earlier work
[6] = no reference given; cited from earlier work
[7] = 60 mg, Dose level 3: eribulin mesylate 1.2 with cisplatin 60 mg m^−2, first dose, N=4, mean (s.d.)
[8] = 60 mg, Dose level 5: eribulin mesylate 1.4 with cisplatin 60 mg m^−2, first dose, N=6, mean (s.d.)
[9] = 75 mg, Dose level 6: eribulin mesylate 1.2 with cisplatin 75 mg m^−2, first dose, N=3, mean (s.d.)

C=C1C[C@@H]2CC[C@@]34C[C@H]5O[C@H]6[C@@H](O3)[C@H]3O[C@H](CC[C@@H]3O[C@H]6[C@H]5O4)CC(=O)C[C@@H]3[C@@H](OC)[C@@H](C[C@H](O)CN)O[C@H]3C[C@H]3O[C@@H](CC[C@@H]1O2)C[C@@H](C)C3=C [Eribulin mesylate]
MTD and recommended phase II dose of eribulin mesylate in combination with cisplatin [1]: 1.2 mg m^−2
effect of cisplatin co-administration on the disposition of eribulin mesylate ([2]; compared to previously reported single agent data (Goel et al, 2009; Tan et al, 2009)): no apparent effect
dose proportionality of mean Cmax and AUC0-inf ([2]; eribulin 1.2–1.4 mg m^−2 with cisplatin): did not increase in a dose-proportional manner
AUC(0-inf) [2, 7]: 1500 ng·h/mL
AUC(0-inf) [2, 8]: 1100 ng·h/mL
clearance [2, 7]: 26.7 mL/min
clearance [2, 8]: 38.3 mL/min
Cmax [2, 7]: 466 ng/mL
Cmax [2, 8]: 508 ng/mL
half-life ([2]; 60 mg, T1/2, Dose level 3: eribulin mesylate 1.2 with cisplatin 60 mg m^−2, first dose, N=4, mean (s.d.)): 40.8 h
half-life ([2]; 60 mg, T1/2, Dose level 5: eribulin mesylate 1.4 with cisplatin 60 mg m^−2, first dose, N=6, mean (s.d.)): 36.5 h
Vd [2, 7]: 51.4 L
Vd [2, 8]: 77.7 L
AUC(0-inf) [2, 9]: 1030 ng·h/mL
clearance [2, 9]: 36.7 mL/min
Cmax [2, 9]: 695 ng/mL
half-life ([2]; 75 mg, T1/2, Dose level 6: eribulin mesylate 1.2 with cisplatin 75 mg m^−2, first dose, N=3, mean (s.d.)): 35.5 h
Vd [2, 9]: 68.4 L
minor responses ([3]; lung, breast, and thyroid): three
median duration of stable disease ([3]; range 2–14 months): 4 months
patients exhibiting stable disease as the best response [3]: 12 patients
dose at which grade 3 toxicity first occurred ([3]; single agent): 0.5 mg m^−2
principal DLT [4]: neutropenia
patients experiencing febrile neutropenia (dominant DLT) [5]: all three patients
administered dose recovered in urine [6]: < 8%
